Measured values reported in patent US8101200B2, “Targeted therapeutic agent release devices and methods of making and using the same” (Angiotech BioCoatings, Inc., priority 2000, dated 2012).

Assay: Elution of paclitaxel from E3 Med Coat coated stents in phosphate buffered saline
Format: physicochemical
Settings: from E3 Med Coat stents (loading 50-60 μg), over a period of 14 days
Experimental: Solution E3-PC was coated on stainless steel coronary stents, and dried for 60 minutes at 120° C. This layer was applied twice. Solution E3 —Med Coat was coated over the precoat layers, and dried for 60 minutes at 120° C. Drug loading on the stents in the range of 50-60 μg was achieved by applying the Med Coat three times. The stent samples with three layers of E3—Med Coat were subjected to elution in room temperature phosphate buffered saline for times up to 336 hours, and produced the results set forth in TABLE I.

paclitaxel eluted out: approximately 10%
Structure (SMILES): CC(=O)O[C@H]1C(=O)[C@@]2(C)[C@H]([C@H](OC(=O)c3ccccc3)[C@]3(O)C[C@H](OC(=O)[C@H](O)[C@@H](NC(=O)c4ccccc4)c4ccccc4)C(C)=C1C3(C)C)[C@]1(OC(C)=O)CO[C@@H]1C[C@@H]2O [paclitaxel]
